From US9790233B2, “Compositions and methods of modulating 15-PGDH activity” (CASE WESTERN RESERVE UNIVERSITY, priority 2012, dated 2017)
Where two headings read alike, the source gives them in different places.

Legend:
[1] = Survival after whole body irradiation; assay type: in vivo, C57BL/6J mice; settings: 11 Gy
[2] = tested on: 15-PGDH luciferase fusion construct in LS174T reporter cell line; experiment: 15-PGDH-luciferase fusion gene reporter induction, LS174T cells; assay type: cell-based; settings: Homo sapiens
15-PGDH protein = 15-PGDH protein (Homo sapiens (Human), UniProt P15428); experiment: Inhibition of enzymatic activity of recombinant 15-PGDH in vitro (tritium transfer from PGE2 or NADH fluorescence); assay type: biochemical; settings: for inhibition at […]: read-out: Enzyme inhibition % ([…]), recombinant 15-PGDH, […] compound; for IC50: recombinant 15-PGDH in vitro, read-out: Enzyme inhibition (IC50)
[3] = tested on: 15-PGDH luciferase fusion construct in V9m reporter cell line; experiment: 15-PGDH-luciferase fusion gene reporter induction, V9m cells; assay type: cell-based
[4] = tested on: 15-PGDH luciferase fusion construct in Vaco503 reporter cell line; experiment: 15-PGDH-luciferase fusion gene reporter induction, V503 cells; assay type: cell-based
A549 cells [5] = experiment: PGE2 levels in the medium of IL1-beta stimulated A549 cells;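 for all read-outs here: PGE2 in the collected culture medium quantified by enzyme immunoassay (ELISA), with data drawn from three independent experiments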; assay type: cell-based; settings: for Decrease PGE-2 (IL-1beta-A549, %): media of IL-1beta stimulated A549 cells; for rank of reduction in levels of PGE2 in the medium / rank of PGE2 level in the medium: 100 nM drug; for rank of reduction in levels of PGE2 in the medium: FIG. 94; for rank of PGE2 level in the medium: FIG. 44
A549 cells [6] = experiment: Cellular toxicity on A549 cells (CellTiter-Glo); assay type: cell-based; set-up: Decrease Cell viability in A549 cell (%): concentration or dose not given beside the values; settings: A549 cells
[7] = tested on: 15-PGDH-luciferase fusion reporter in V9m, LS174T and V503 cells; experiment: 15-PGDH-luciferase fusion gene reporter induction, stated for the three cell line backgrounds together; assay type: cell-based
[8] = read-out: Ls174T-SC1 reporter activity, % ([…]), […], Table 18, read-out: Ls174T-SC1 reporter activity, % (2.5 μM)
[9] = read-out: Ls174T-SC1 reporter activity, % ([…]), […], Table 18, read-out: Ls174T-SC1 reporter activity, % (7.5 μM)
[10] = Table 18, read-out: Enzyme inhibition % (7.5 μM)
[11] = read-out: V9M-SC3 Reporter activity ([…]) (%), […], Table 18, read-out: V9M-SC3 Reporter activity (2.5 μM) (%)
[12] = read-out: V503-3H9-7 reporter activity, % ([…]), […], Table 18, read-out: V503-3H9-7 reporter activity, % (2.5 μM)
[13] = read-out: V503-3H9-7 reporter activity, % ([…]), […], Table 18, read-out: V503-3H9-7 reporter activity, % (7.5 μM)
[14] = read-out: Ls174T-SC1 reporter activity, % ([…]), LS174T reporter cells, […] compound, % induction of luciferase activity over basal level, read-out: Ls174T-SC1 reporter activity, % (2.5 μM)
[15] = read-out: Ls174T-SC1 reporter activity, % ([…]), LS174T reporter cells, […] compound, % induction of luciferase activity over basal level, read-out: Ls174T-SC1 reporter activity, % (7.5 μM)
[16] = read-out: V9M-SC3 Reporter activity ([…]) (%), V9m reporter cells, […] compound, % induction of luciferase activity over basal level, read-out: V9M-SC3 Reporter activity (2.5 μM) (%)
[17] = read-out: V9M-SC3 Reporter activity ([…]), %, V9m reporter cells, […] compound, % induction of luciferase activity over basal level, read-out: V9M-SC3 Reporter activity (7.5 μM), %
[18] = read-out: V503-3H9-7 reporter activity, % ([…]), V503 reporter cells, […] compound, % induction of luciferase activity over basal level, read-out: V503-3H9-7 reporter activity, % (2.5 μM)
[19] = read-out: V503-3H9-7 reporter activity, % ([…]), V503 reporter cells, […] compound, % induction of luciferase activity over basal level, read-out: V503-3H9-7 reporter activity, % (7.5 μM)
[20] = read-out: LS174T reporter activity ([…]), […], % increased luciferase activity over basal level, read-out: LS174T reporter activity (2.5 uM)
[21] = read-out: LS174T reporter activity ([…]), […], % increased luciferase activity over basal level, read-out: LS174T reporter activity (7.5 uM)
[22] = read-out: V9M reporter activity ([…]), […], % increased luciferase activity over basal level, 100 = doubling, read-out: V9M reporter activity (2.5 uM)
[23] = read-out: V9M reporter activity ([…]), […], % increased luciferase activity over basal level, 100 = doubling, read-out: V9M reporter activity (7.5 uM)
[24] = read-out: V503 reporter activity ([…]), […], % increased luciferase activity over basal level, read-out: V503 reporter activity (2.5 uM)
[25] = read-out: V503 reporter activity ([…]), […], % increased luciferase activity over basal level, read-out: V503 reporter activity (7.5 uM)

Sequence of 15-PGDH protein (P15428 whole entry, the tested form may be a part): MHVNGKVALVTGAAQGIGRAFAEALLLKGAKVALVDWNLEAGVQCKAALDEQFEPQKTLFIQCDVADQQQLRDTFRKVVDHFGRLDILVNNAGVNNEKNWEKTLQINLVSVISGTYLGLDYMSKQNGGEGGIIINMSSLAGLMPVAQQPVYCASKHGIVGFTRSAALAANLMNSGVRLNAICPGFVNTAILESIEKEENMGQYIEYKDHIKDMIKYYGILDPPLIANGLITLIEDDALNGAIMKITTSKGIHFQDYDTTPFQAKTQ

| Molecule | Decrease PGE-2 (IL-1beta-A549, %) (A549 cells [5]) | activation at […] [2, 14] | activation at […] [2, 15] | activation at […] [3, 16] | activation at […] [3, 17] | activation at […] [4, 18] | activation at […] [4, 19] | further results |
| --- | --- | --- | --- | --- | --- | --- | --- | --- |
| 2-(butylsulfinyl)-4-phenyl-6-(thiophen-2-yl)thieno[2,3-b]pyridin-3-amine [SW033291] |  |  |  |  |  |  |  | longer survival than vehicle control ([1]; 5 mg/kg IP daily): 48 h; day on which all mice were dead ([1]; control day 8): 10 days |
| COc1ccc(OC)c(N(CC(=O)Nc2ccc(C)cc2)S(=O)(=O)c2ccccc2)c1 [311333-86-5] |  |  |  |  |  |  |  | activation at […] [2, 8]: 30%; activation at […] [2, 9]: 53.4%; inhibition at […] (15-PGDH protein; [10]): 34%; activation at […] [3, 11]: 53%; activation at […] [4, 12]: 102%; activation at […] [4, 13]: 131% |
| COc1ccc(NC(=O)CN(c2cc(OC)ccc2OC)S(=O)(=O)c2ccccc2)cc1 [333447-10-2] |  |  |  |  |  |  |  | activation at […] [2, 8]: 7.54%; activation at […] [2, 9]: 14.4%; inhibition at […] (15-PGDH protein; Table 18, read-out: Enzyme inhibition % (2.5 μM)): 27%; inhibition at […] (15-PGDH protein; [10]): 46.5%; percent induction of reporter activity over basal level at […] ([3]; read-out: V9M-SC3 Reporter activity % ([…]), 7.5 μM, Table 18): 10%; activation at […] [3, 11]: -0.5%; activation at […] [4, 12]: 76.9%; activation at […] [4, 13]: 159% |
| CCCC[S@](C)(O)c1sc2nc(-c3cccs3)cc(-c3ccccc3)c2c1N [SW033291 isomer B] |  |  |  |  |  |  |  | IC50 (15-PGDH protein; Table 2): 0.00076 µM |
| COc1ccc(OC)c(N(CC(=O)Nc2ccncc2)S(=O)(=O)c2ccccc2)c1 [SW202938] | −47.55% | 217% | 241% | 155% | 230% | 309% | 301% | IC50 (15-PGDH protein): 2.67 µM |
| CCOC(=O)CN(c1cc(OC)ccc1OC)S(=O)(=O)c1ccccc1 [SW202951] | −1.01% | 34.3% | 47.6% | 4.56% | 17.7% | 97.5% | 131% |  |
| COc1ccc(OC)c(N(CC(=O)Nc2ccc(C)nc2)S(=O)(=O)c2ccccc2)c1 [SW202988] | −16.79% | 40.5% | 125% | 7.36% | 54.4% | 125% | 258% | IC50 (15-PGDH protein): ~10 µM |
| COc1ccc(S(=O)(=O)N(CC(=O)Nc2ccncc2)c2cc(OC)ccc2OC)cc1 [SW202989] | 69.40% | 159% | 171% | 188% | 184% | 208% | 214% | Decrease Cell viability in A549 cell (%) (A549 cells [6]): 30.59%; IC50 (15-PGDH protein): 0.427 µM |
| COc1ccc(OC)c(N(CC(=O)Nc2cncnc2)S(=O)(=O)c2ccccc2)c1 [SW203683] | −3.41% | 3.76% | 210% | 137% | 191% | 104% | -41% | IC50 (15-PGDH protein): ~7 µM |
| COc1ccc(OC)c(N(CC(=O)Nc2ccnnc2)S(=O)(=O)c2ccccc2)c1 [SW203685] | 17.84% | 22.3% | 254% | 100% | 204% | 122% | -33.2% | IC50 (15-PGDH protein): 5 µM |
| COc1ccc(OC)c(N(CC(=O)Nc2nccs2)S(=O)(=O)c2ccccc2)c1 [SW203691] | 36.76% | 5.47% | 22% | 7.78% | 19.8% | 47.1% | 90% | Decrease Cell viability in A549 cell (%) (A549 cells [6]): 0.00%; inhibition at […] (15-PGDH protein; read-out: Enzyme inhibition % (7.5 μM)): 3.12% |
| COc1ccc(OC)c(N(CC(=O)Nc2cccnc2)S(=O)(=O)c2ccc(F)cc2)c1 [SW203736] | 31.86% | 127% | 156% | 132% | 145% | 244% | 204% | Decrease Cell viability in A549 cell (%) (A549 cells [6]): −3.06%; lowering of PGE2 levels in media (A549 cells [5]): show activity in lowering PGE2 |
| COc1ccc(OC)c(N(CC(=O)Nc2cccnc2)S(=O)(=O)c2ccc(Br)cc2)c1 [SW203737] | 47.78% | 76.7% | 85.1% | 93.4% | 103% | 176% | 154% | Decrease Cell viability in A549 cell (%) (A549 cells [6]): −2.56%; lowering of PGE2 levels in media (A549 cells [5]): show activity in lowering PGE2 |
| COc1ccc(S(=O)(=O)N(CC(=O)N2CCOCC2)c2cc(OC)ccc2OC)cc1 [SW207997] |  | 87.6% | 94.1% | 59.5% | 71% | 149% | 157% | rank of reduction in levels of PGE2 in the medium (A549 cells [5]): greatest reduction in levels of PGE2 |
| COc1ccc(S(=O)(=O)N(CC(=O)N2CCCCCC2)c2cc(OC)ccc2OC)cc1 [SW207998] |  | 65.2% | 77% | 53.4% | 58.9% | 144% | 147% | rank of reduction in levels of PGE2 in the medium (A549 cells [5]): greatest reduction in levels of PGE2 |
| COc1ccc(S(=O)(=O)N(CC(=O)N2CCCCC2)c2cc(OC)ccc2OC)cc1 [SW207999] |  | 98% | 123% | 128% | 124% | 124% | 110% | induction of 15-PGDH-luciferase reporter in cell lines (SW054384 analogues) ([7]; […] and […]): active in inducing the 15-PGDH-luciferase reporter |
| CCCC[S+]([O-])c1sc2nc(-c3nccs3)cc(-c3ccccc3)c2c1N (stereo not shown) [SW208066, 2-(butylsulfinyl)-4-phenyl-6-(thiazol-2-yl)thieno[2,3-b]pyridin-3-amine] |  |  |  |  |  |  |  | rank of PGE2 level in the medium (A549 cells [5]): highest levels of PGE2 |
| CCCC[S+]([O-])c1sc2nc(-c3cccs3)nc(-c3ccccc3)c2c1N (stereo not shown) [SW208067, 6-(butylsulfinyl)-4-phenyl-2-(thiophen-2-yl)thieno[2,3-d]pyrimidin-5-amine] |  |  |  |  |  |  |  | rank of PGE2 level in the medium (A549 cells [5]): highest levels of PGE2; activation at […] [2, 20]: 94.3%; activation at […] [2, 21]: 79.6%; activation at […] [3, 22]: 122%; activation at […] [3, 23]: 108%; activation at […] [4, 24]: 94.3%; activation at […] [4, 25]: 79.6% |
| CCCC[S+]([O-])c1ncccc1[N+](=O)[O-] (stereo not shown) [SW208069, 2-(butylsulfinyl)-3-nitropyridine] |  |  |  |  |  |  |  | IC50 (15-PGDH protein; Table 2, cells printed in uM): > 7.5 µM |
| C[S+]([O-])c1sc2nc(-c3cccs3)cc(-c3ccccc3)c2c1N (stereo not shown) [SW208079, 2-(methylsulfinyl)-4-phenyl-6-(thiophen-2-yl)thieno[2,3-b]pyridin-3-amine] |  |  |  |  |  |  |  | activation at […] [2, 20]: 53.4%; activation at […] [2, 21]: 43.8%; IC50 higher compared to SW033291 (15-PGDH protein; effect of carbon side chain length): over 60 fold; activation at […] [3, 22]: 36%; activation at […] [3, 23]: 32.8%; reporter induction in reporter cell lines [7]: marked loss of activity in inducing the cell line reporters; activation at […] [4, 24]: 85.3%; activation at […] [4, 25]: 61.8% |
